Measurements from patent US20220213156A1, “Peptides for use in therapy or prophylaxis of Herpesviridae-infections” (priority 2019, published 2022).
Read-outs that look alike come from different tables or passages of the source. Residues, ends and D or L forms follow the SMILES beside them.

Columns and labels:
[1] = test system: HFF, ARPE-19 and macrophages; assay: Impedance measurement (xCELLigence) toxicity study; format: cell-based, human; details: ARPE-19, macrophages, 72 h impedance
Description: The “xCELLigence” system (ACEA Biosciences Inc.) was used for a more detailed toxicity study. The principle is based on a measurement of the electrical resistance caused by adhesive cells on the bottom of a 96-well plate equipped with microelectrodes. Cell proliferation causes an increase in resistance due to the partial isolation of the electrodes, while events leading to altered cell morphology or cell detachment lead to reduced resistance (Diemert et al. “Impedance measurement for real time detection of neuronal cell death”, J Neurosci Methods, 203(1):69-77, 2012)). The experiments were performed with HFF, ARPE-19 and macrophages, the appropriate cell numbers were determined in a preliminary experiment without treatment with peptides.
On the first day 10 000 HFF or ARPE-19 or 20 000 macrophages per well were sown. […] Then a blank value was measured and the cells were added in corresponding numbers in 150 μl medium each, the final volume was 200 μl per well. The plate was placed in the “xCELLigence” and the impedance was measured at 37° C. and 5% CO2 over 24 h every 30 min. […] Afterwards, the resistance at the bottom of the 96-well plate was measured every 30 min for a further 72 h. The resistance of the tritone was measured with a positive control of 10% tritone. From the measured impedance values, the RTCA software calculated the so-called cell index according to the following formula: […]

zebrafish embryos = format: in vivo; details: exposure from 6-7 hpf
Method: To test HD5 (1-9) (SEQ ID No. 1) for toxicity and to assess its effect on embryonic development in zebrafish, embryos obtained from natural crosses of wildtype TE fish were used. After mating, embryos were incubated at 28° C. until 6 h postfertilization (hpf). Triplicates of five embryos each were then placed in wells of a 96-well plate containing 200 μl of different peptide concentrations. HD5 (1-9) (SEQ ID No. 1) dissolved in PBS was diluted in normal embryo medium (250 mg/L Instant Ocean salt, 1 mg/L methylene blue in reverse osmosis water adjusted to pH 7 with NaHCO3) (Muller et al., “Differential diffusivity of Nodal and Lefty underlies a reaction-diffusion patterning system”; Science 336 (6082):721-724, 2012). The concentrations tested were 25 μM, 75 μM, 125 μM and 250 μM, and the concentration of PBS solvent was adjusted for each control group. At peptide concentrations of 75 μM and above we observed granulae in some wells, which could represent peptide accumulations. As a control, embryos were additionally incubated in 25 μg/ml cycloheximide (C4859, Sigma-Aldrich). After 13 hpf, 24 hpf and 48 hpf a microscopic phenotype analysis was performed. For each time point embryos were automatically imaged using an ACQUIFER Imaging Machine. For the phenotype analysis at 48 hpf, the larvae were manually dechorionated and anaesthetized with 2% tricaine methane-sulfonate (A5040-25G, Sigma-Aldrich). Images were acquired on an Axio Zoom.V16 microscope (ZEISS).
As a first test of HD5 (1-9) (SEQ ID No. 1) toxicity in vivo, as well as to elucidate potential effects of the peptide on embryonic development, experiments with zebrafish embryos were performed (He et al., 2014). Embryos were treated with HD5 (1-9) (SEQ ID No. 1) at concentrations of 25 μM, 75 μM, 125 μM and 250 μM starting at 6-7 h post fertilization (hpf), which is the time point recommended by pharmaceutical company-utilized assays to assess toxic effects of compounds on early embryonic development (Ball et al., 2014). Phenotypes were analyzed at 13.24 and 48 hpf (data not shown). […] Impaired development at 250 μM peptide exposure was also evident over the whole observation period, leading to the death of 11 embryos and 4 embryos having severe developmental delays by 48 hpf.

With C[C@H](N)C(=O)N[C@H](C(=O)N[C@@H](CS)C(=O)N[C@@H](Cc1ccc(O)cc1)C(=O)N[C@@H](CS)C(=O)N[C@@H](CCCNC(=N)N)C(=O)N[C@H](C(=O)NCC(=O)N[C@@H](CCCNC(=N)N)C(=O)O)[C@@H](C)O)[C@@H](C)O [HD5 (1-9), ATCYCRTGR] (H-ATCYCRTGR-OH; N-terminus and C-terminus assumed) the “concentration up to which no cytotoxicity is shown” value [1] was “up to 150 μM”, the embryonic development (zebrafish embryos; 25 μM or 75 μM) was “developed normally” and the embryonic development (zebrafish embryos; 125 μM) was “approximately half of the embryos having no alterations”. For the same compound, the “death of embryos by 48 hpf” value (zebrafish embryos; 250 μM) was 11 embryos, the “embryo death by 13 hpf” value (zebrafish embryos; 250 μM) was “half of the embryos had died” and the “embryos having severe developmental delays by 48 hpf” value (zebrafish embryos; 250 μM) was 4 embryos.
